We go through four molecules from BindingDB's records for doi:10.1111/j.1747-0285.2009.00857.x (Istituto Di Biostrutture E Bioimmagini-Cnr, 2009).

Assay in all cases: Inhibition Assay
What all share (conditions): pH 7.5; 20 °C

In experiment [1] the target is Carbonic anhydrase 3 (Homo sapiens, UniProt P07451).
From the text: (§1) Inhibition assay using carbonic anhydrases with an SX.18MV-R, a stopped-flow instrument from Applied Photophysics was used for assaying the CA catalyzed CO2 hydration activity.
Experiment [2] concerns the target Carbonic anhydrase 14 (Homo sapiens, UniProt Q9ULX7).
From the text: as §1
Experiment [3] concerns the target Carbonic anhydrase 5A, mitochondrial (Homo sapiens, UniProt P35218).
From the text: as §1
Experiment [4] has as its target Carbonic anhydrase 4 (Homo sapiens, UniProt P22748).
From the text: as §1
Experiment [5] addresses Carbonic anhydrase 13 (Homo sapiens, UniProt Q8N1Q1).
From the text: as §1
Experiment [6] addresses Carbonic anhydrase 5B, mitochondrial (Homo sapiens, UniProt Q9Y2D0).
From the text: as §1
The target of experiment [7] is Carbonic anhydrase 12 (Homo sapiens, UniProt O43570).
Sequence of Carbonic anhydrase 12 (O43570 whole entry): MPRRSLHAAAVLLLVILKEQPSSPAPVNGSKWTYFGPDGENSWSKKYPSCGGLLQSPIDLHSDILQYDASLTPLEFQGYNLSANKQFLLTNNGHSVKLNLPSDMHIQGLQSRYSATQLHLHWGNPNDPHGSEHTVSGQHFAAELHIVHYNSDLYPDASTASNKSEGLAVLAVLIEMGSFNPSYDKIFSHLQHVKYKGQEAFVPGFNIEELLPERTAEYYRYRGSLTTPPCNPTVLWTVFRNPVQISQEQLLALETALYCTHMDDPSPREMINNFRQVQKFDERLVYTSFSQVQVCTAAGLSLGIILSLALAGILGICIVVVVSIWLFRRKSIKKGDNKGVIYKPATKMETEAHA
From the text: as §1
Experiment [8] addresses Carbonic anhydrase 2 (Homo sapiens, UniProt P00918).
From the text: as §1
The target of experiment [9] is Carbonic anhydrase 1 (Homo sapiens, UniProt P00915).
Sequence of Carbonic anhydrase 1 (P00915 whole entry): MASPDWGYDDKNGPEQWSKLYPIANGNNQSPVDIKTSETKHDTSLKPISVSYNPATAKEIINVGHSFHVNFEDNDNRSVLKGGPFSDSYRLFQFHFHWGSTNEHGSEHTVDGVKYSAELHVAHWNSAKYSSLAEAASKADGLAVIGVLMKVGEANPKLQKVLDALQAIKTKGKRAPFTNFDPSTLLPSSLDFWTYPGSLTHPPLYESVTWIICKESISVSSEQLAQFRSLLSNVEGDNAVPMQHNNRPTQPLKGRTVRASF
From the text: as §1
Experiment [10] concerns the target Carbonic anhydrase 6 (Homo sapiens, UniProt P23280).
From the text: as §1
For experiment [11], the target named is Carbonic anhydrase 7 (Homo sapiens, UniProt P43166).
Sequence of Carbonic anhydrase 7 (P43166 whole entry): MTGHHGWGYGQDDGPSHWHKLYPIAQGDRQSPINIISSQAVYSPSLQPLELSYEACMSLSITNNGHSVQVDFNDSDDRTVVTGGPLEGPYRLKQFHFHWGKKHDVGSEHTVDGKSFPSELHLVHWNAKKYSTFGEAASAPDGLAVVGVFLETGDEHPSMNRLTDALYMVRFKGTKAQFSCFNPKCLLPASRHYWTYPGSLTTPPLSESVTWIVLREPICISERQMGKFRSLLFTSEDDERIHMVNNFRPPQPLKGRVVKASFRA
From the text: as §1

A word on the Ki: it is the equilibrium dissociation constant of an inhibitor or competing ligand from its target. A high value points to a looser hold on the target.

Sequence of Carbonic anhydrase 4 (P22748 whole entry): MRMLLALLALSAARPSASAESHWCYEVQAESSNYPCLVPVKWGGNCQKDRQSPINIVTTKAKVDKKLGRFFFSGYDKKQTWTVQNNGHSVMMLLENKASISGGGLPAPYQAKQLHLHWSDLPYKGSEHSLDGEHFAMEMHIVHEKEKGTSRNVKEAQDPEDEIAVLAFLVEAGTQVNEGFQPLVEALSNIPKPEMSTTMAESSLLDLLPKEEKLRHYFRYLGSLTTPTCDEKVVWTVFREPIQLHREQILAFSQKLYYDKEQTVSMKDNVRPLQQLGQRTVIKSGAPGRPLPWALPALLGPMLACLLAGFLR
Sequence of Carbonic anhydrase 14 (Q9ULX7 whole entry): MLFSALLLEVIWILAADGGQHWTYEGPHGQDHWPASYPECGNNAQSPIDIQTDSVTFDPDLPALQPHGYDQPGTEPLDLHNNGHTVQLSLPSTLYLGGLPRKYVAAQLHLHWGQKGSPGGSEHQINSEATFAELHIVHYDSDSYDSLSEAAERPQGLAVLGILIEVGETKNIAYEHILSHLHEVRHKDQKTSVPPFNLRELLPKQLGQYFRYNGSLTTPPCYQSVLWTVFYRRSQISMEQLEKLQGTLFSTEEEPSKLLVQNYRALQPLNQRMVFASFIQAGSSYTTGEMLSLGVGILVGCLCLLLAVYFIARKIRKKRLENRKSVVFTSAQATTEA
Sequence of Carbonic anhydrase 5A, mitochondrial (P35218 whole entry): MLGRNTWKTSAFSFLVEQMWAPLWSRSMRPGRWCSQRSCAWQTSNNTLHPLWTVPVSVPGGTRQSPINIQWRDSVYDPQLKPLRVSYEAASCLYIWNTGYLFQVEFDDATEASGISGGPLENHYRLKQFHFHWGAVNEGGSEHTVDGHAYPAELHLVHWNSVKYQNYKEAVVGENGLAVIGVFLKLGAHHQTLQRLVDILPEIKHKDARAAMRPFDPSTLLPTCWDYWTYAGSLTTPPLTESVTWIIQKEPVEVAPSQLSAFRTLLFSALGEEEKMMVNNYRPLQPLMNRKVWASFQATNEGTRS
Sequence of Carbonic anhydrase 5B, mitochondrial (Q9Y2D0 whole entry): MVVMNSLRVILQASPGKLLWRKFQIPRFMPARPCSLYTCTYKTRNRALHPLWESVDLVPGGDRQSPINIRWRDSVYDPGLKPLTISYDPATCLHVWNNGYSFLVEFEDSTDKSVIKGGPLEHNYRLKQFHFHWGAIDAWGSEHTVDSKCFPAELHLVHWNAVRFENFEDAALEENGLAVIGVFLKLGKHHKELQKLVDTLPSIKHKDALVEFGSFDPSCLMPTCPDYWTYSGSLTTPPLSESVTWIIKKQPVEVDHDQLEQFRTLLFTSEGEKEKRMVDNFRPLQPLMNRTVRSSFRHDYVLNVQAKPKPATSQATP
Sequence of Carbonic anhydrase 13 (Q8N1Q1 whole entry): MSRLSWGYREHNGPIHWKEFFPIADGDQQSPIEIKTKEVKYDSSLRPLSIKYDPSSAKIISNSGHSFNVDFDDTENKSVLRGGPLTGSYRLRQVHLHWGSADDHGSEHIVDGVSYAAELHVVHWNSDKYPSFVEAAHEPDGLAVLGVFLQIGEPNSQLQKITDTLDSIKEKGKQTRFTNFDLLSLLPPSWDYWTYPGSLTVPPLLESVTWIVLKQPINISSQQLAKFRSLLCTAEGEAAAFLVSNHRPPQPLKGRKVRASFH
Sequence of Carbonic anhydrase 3 (P07451 whole entry): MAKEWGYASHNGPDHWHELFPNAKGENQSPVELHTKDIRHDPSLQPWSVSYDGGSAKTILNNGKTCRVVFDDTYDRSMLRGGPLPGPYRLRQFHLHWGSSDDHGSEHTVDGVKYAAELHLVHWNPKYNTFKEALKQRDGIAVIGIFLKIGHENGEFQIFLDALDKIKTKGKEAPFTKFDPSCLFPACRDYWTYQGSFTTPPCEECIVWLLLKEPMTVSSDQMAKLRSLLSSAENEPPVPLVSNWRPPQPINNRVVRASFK
Sequence of Carbonic anhydrase 6 (P23280 whole entry): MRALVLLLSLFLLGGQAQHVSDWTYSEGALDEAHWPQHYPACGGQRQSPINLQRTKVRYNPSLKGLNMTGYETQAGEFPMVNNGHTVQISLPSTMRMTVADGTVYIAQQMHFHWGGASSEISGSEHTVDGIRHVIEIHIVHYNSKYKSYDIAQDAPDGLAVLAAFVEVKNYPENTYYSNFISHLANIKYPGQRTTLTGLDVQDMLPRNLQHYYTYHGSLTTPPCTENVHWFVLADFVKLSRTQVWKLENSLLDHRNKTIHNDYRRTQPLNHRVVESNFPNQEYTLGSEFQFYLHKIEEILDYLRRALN

As for `NS(=O)(=O)c1ccc(N2CCCCS2(=O)=O)cc1` [Ospolot], the Ki in experiment [1] is 630 µM; in experiment [2] it was 1.54 µM; in experiment [3] it was 0.081 µM; in experiment [4] it was 0.095 µM; in experiment [5], 1.45 µM; in experiment [6], 0.091 µM.

Take `NS(=O)(=O)c1nnc(NC(=O)N[C@]23C[C@H]4C[C@H](C[C@H](C4)C2)C3)s1` [Investigational agent, 5]: the Ki in experiment [1] turned out to be 330 µM; in [2], 0.015 µM; in experiment [3] it was 0.135 µM; in [4] it was 0.03 µM; in experiment [7], 0.0047 µM; in [8], 0.013 µM. In addition, the Ki is 0.81 µM in experiment [9]; 0.039 µM in [5]; 0.031 µM in [10]; 0.0013 µM in [11]; 0.045 µM in [6].

As to `NS(=O)(=O)c1nnc(NC(=O)[C@]23C[C@H]4C[C@H](C[C@H](C4)C2)C3)s1` [Investigational agent, 4], the Ki turned out to be 310 µM in [1], 0.0009 µM in [7], 0.85 µM in experiment [9] and 0.0005 µM in experiment [11].

As to `CC1(C)O[C@@H]2[C@@H](CC[C@@]3(COS(N)(=O)=O)OC(C)(C)O[C@@H]23)O1`, the inhibition constant Ki in experiment [1] is 780 µM; in experiment [2], 1.46 µM; in [3] it was 0.063 µM; in experiment [4], 4.9 µM; in experiment [7], 0.0038 µM; in [9] it was 0.25 µM. Also, the Ki in experiment [5] turned out to be 0.047 µM; in experiment [10], 0.045 µM; in experiment [6] it was 0.03 µM.
